Reference: patent publication US6802957B2, “Self-referencing enzyme-based microsensor and method of use” (priority 2001, dated 2004)

Tested on: pancreatic HIT cells (β-cell clusters)
Format: cell-based, hamster
Experimental: For trypsinization and splitting, trypsin-EDTA solution was added to a culture flask and incubated for 30 s while triturating with a transfer pipette. Serum was added to stop the digestive action of trypsin. Supernatant was removed after centrifugation at 1000 rpm for 2 min. Culture medium was added, and cells plated into glass bottom petri dishes (35 mm diameter, Matek, Ashland, Mass.) for incubation and subsequent observation.
Cell clusters, approximating to spheroids, appeared approximately two weeks after splitting. Their size ranged from 70 μm to 300 μm in diameter, depending on the time in culture.
A glucose microsensor was positioned adjacent to the cluster and self-referenced perpendicularly to the contour of the expected glucose gradient. The glucose sensor was self-referenced at 0.2 Hz between 60 and 80 μm (Δr of 20 μm) from the cluster surface to avoid H2O2 boundary artifacts. Flux measurements were done in HEPES-buffered solution containing 118 mM NaCl, 5.4 mM KCl, 2.4 mM CaCl2, 1.2 mM MgSO4, 1.2 mM KH2PO4, and 5 mM NaHCO3. All measurements were made with 5 mM glucose in the medium. To ensure that the apparent glucose signal was due to the glucose gradient and not the oxygen gradient, oxygen was provided by a ˜10 μm pipette located 10 μm from the cell cluster and approximately 50 μm from the glucose sensor to reverse the biological oxygen gradient. […] In situ calibration of the sensor was performed immediately after the flux measurements. Data were only accepted if sensor drift was less than ±5% over the experimental period, which was typically 30 min. All data were reported as means ±SEM unless otherwise mentioned.
The glucose sensor was self-referenced at 0.2 Hz between 60 and 80 μm (Δr of 20 μm) from the cluster surface. The aliquot of FCCP was dropped on the meniscus of the medium to minimize disturbance of the existing glucose gradient. All measurements were performed with 5 mM glucose in the bath.
Glucose metabolism was further studied with rotenone, an inhibitor of NADH-dependent respiration in mitochondria. […]

Which “decrease in the level of glucose consumption” value (10 μM rotenone, after 10 min, 5 mM glucose in bath, oxygen source present, four clusters) does the source give for `C=C(C)[C@H]1Cc2c(ccc3c2O[C@@H]2COc4cc(OC)c(OC)cc4[C@@H]2C3=O)O1` [Rotenone, rotenone] here?
Its value is 74±5%.

How did the “glucose flux relative to the basal condition” value turn out when “trifluoromethoxy carbonylcyanide phenylhydrazine [FCCP]” was run?
The value was 56±6 % of the basal condition.

What about the “initial increase in glucose flux” value of the same molecule?
The value was 93±16%.
